Here are results for five compounds from patent EP0908457B1, “3-(1,2-benzisothiazol- and isoxazol-5-Y1)-2,4(1H,3H)-pyrimidinedione or thione and 3-(1,2-benzisothiazol- and isoxazol-5-y1)-4(3H)-pyrimidinone or thione herbicidal agents” (BASF AKTIENGESELLSCHAFT, priority 1997, dated 1999).

The subject of series [1] is Oryza sativa, (L.) Tebonnet. Nature of the series: Rice tolerance to post-transplant applications under flooded paddy conditions (Example 187), ORYSAT (Rice, Tebonnet). As to herbicidal effect rating ORYSAT: meaning of each grade not given here. As to conditions: rated three to four weeks after treatment.
The next series concerns Sagittaria pygmaea, L. Description: Preemergence weed control under flooded paddy conditions, SAGPY (Arrowhead (Pygmaea)). As to herbicidal effect rating, SAGPY: meaning of each grade not given here. It counts as in vivo. As to conditions: flooded paddy, rated three to four weeks after treatment.
For series [2], the system named is Echinochloa oryzoides (Ard.) Fritsch. Description: Preemergence weed control under flooded paddy conditions, ECHORC (Watergrass (Calif.)). As to herbicidal effect rating, ECHORC: meaning of each grade not given here. The format is in vivo. As to conditions: flooded paddy, rated three to four weeks after treatment.
Series [3] deals with Monochoria vaginalis, Presl. Nature of the series: Preemergence weed control under flooded paddy conditions, MOOVA (Monochoria). As to herbicidal effect rating, MOOVA: meaning of each grade not given here. As to conditions: flooded paddy, rated three to four weeks after treatment. It counts as in vivo.
For another series, the system named is Cyperus iria. Nature of the series: Preemergence weed control under flooded paddy conditions, CYPIR (Rice Flatsedge). As to herbicidal effect rating, CYPIR: meaning of each grade not given here. It counts as in vivo. Conditions: flooded paddy, rated three to four weeks after treatment.
[4] abbreviates: Rate 0.0620 kg/ha, preemergence.
[5] abbreviates: Rate 0.1250 kg/ha, preemergence.
Setting [6] is: Rate 0.2500 kg/ha, preemergence.
[7] abbreviates: Rate 0.0320 kg/ha, preemergence.
Setting [8] is: Rate 0.5000 kg/ha, preemergence.
Where [9] appears, read: Rate 0.0320 kg/ha, preemergence weeds.
Setting [10] is: Rate 0.0620 kg/ha, preemergence weeds.
Where [11] appears, read: Rate 0.1250 kg/ha, preemergence weeds.
Where [12] appears, read: Rate 0.2500 kg/ha, preemergence weeds.

For the compound `CNC.Cn1c(C(F)(F)F)cc(=O)n(-c2ccc3snc(COCC(=O)NS(C)(=O)=O)c3c2)c1=O` [Example 295, Acetamide, 2-{{5-[3,6-dihydro-3-methyl-2,6-dioxo-4-(trifluoromethyl)-1(2H)-pyrimidinyl]-1,2-benzisothiazol-3-yl}methoxy}-N-(methylsulfonyl)-, dimethylamine salt], the “ORYSAT herbicidal effect rating” value in series [1] (Rate 0.0620 kg/ha), in series [1] (Rate 0.1250 kg/ha) and in series [1] (Rate 0.2500 kg/ha) was 0.0 throughout. For the same compound, the “SAGPY herbicidal effect rating” value in the series on Sagittaria pygmaea, L. (setting [4]) worked out at 0.0; in the series with Sagittaria pygmaea, L. (setting [5]), 0.0; in the series with Sagittaria pygmaea, L. (setting [6]), 6.0. The “ECHORC herbicidal effect rating” value in series [2] (setting [4]), in series [2] (setting [5]) and in series [2] (setting [6]) was 0.0 throughout. Moreover, the “MOOVA herbicidal effect rating” value in series [3] (setting [4]) is listed as 0.0; in series [3] (setting [5]) it was 9.0; in series [3] (setting [6]) it was 9.0. Moreover, the “CYPIR herbicidal effect rating” value in the series with Cyperus iria (setting [4]) is on record as 0.0; in the series on Cyperus iria (setting [5]) it was 9.0; in the series on Cyperus iria (setting [6]), 9.0.

As to `CNC.Cn1c(C(F)(F)F)cc(=O)n(-c2ccc3snc(COCC(=O)O)c3c2)c1=O` [Example 296, Acetic acid, {{5-[3,6-dihydro-3-methyl-2,6-dioxo-4-(trifluoromethyl)-1(2H)-pyrimidinyl]-1,2-benzisothiazol-3-yl}methoxy}-, dimethylamine salt], the “ORYSAT herbicidal effect rating” value in series [1] (Rate 0.0320 kg/ha) came out at 0.0; in series [1] (Rate 0.0620 kg/ha), 0.0; in series [1] (Rate 0.1250 kg/ha), 0.0; in series [1] (Rate 0.2500 kg/ha) it was 2.0. Further, the “SAGPY herbicidal effect rating” value is given as 0.0 in the series with Sagittaria pygmaea, L. (setting [7]); 0.0 in the series on Sagittaria pygmaea, L. (setting [4]); 5.0 in the series on Sagittaria pygmaea, L. (setting [5]); 7.0 in the series with Sagittaria pygmaea, L. (setting [6]). In addition, the “ECHORC herbicidal effect rating” value worked out at 0.0 in series [2] (setting [7]), 0.0 in series [2] (setting [4]), 2.0 in series [2] (setting [5]) and 4.0 in series [2] (setting [6]). Also, the “MOOVA herbicidal effect rating” value in series [3] (setting [7]), in series [3] (setting [4]), in series [3] (setting [5]) and in series [3] (setting [6]) was 9.0 in each case. The “CYPIR herbicidal effect rating” value was 6.0 in the series on Cyperus iria (setting [7]), 7.0 with Cyperus iria (setting [4]), 7.0 in the series with Cyperus iria (setting [5]) and 7.0 with Cyperus iria (setting [6]).

Turning to `COC(=O)COCc1nsc2ccc(-n3c(=O)cc(C(F)(F)F)n(C)c3=O)cc12` [Example 292, Acetic acid, {{5-[3,6-dihydro-3-methyl-2,6-dioxo-4-(trifluoromethyl)-1(2H)-pyrimidinyl]-1,2-benzisothiazol-3-yl}methoxy}-, methyl ester], the “ORYSAT herbicidal effect rating” value in series [1] (Rate 0.0320 kg/ha), in series [1] (Rate 0.0620 kg/ha), in series [1] (Rate 0.1250 kg/ha) and in series [1] (Rate 0.2500 kg/ha) was 0.0 in each case. Further, the “SAGPY herbicidal effect rating” value in the series on Sagittaria pygmaea, L. (setting [7]) is given as 0.0; in the series with Sagittaria pygmaea, L. (setting [4]) it was 0.0; with Sagittaria pygmaea, L. (setting [5]) it was 0.0; with Sagittaria pygmaea, L. (setting [6]), 5.0. Also, the “ECHORC herbicidal effect rating” value in series [2] (setting [7]), in series [2] (setting [4]), in series [2] (setting [5]) and in series [2] (setting [6]) was 0.0 each time. For the same compound, the “MOOVA herbicidal effect rating” value in series [3] (setting [7]), in series [3] (setting [4]), in series [3] (setting [5]) and in series [3] (setting [6]) was 9.0 in each case. The “CYPIR herbicidal effect rating” value in the series with Cyperus iria (setting [7]), with Cyperus iria (setting [4]), in the series with Cyperus iria (setting [5]) and in the series on Cyperus iria (setting [6]) was 9.0 throughout.

Regarding `COc1ccc(O)c(-c2nsc3ccc(-n4c(=O)cc(C(F)(F)F)n(C)c4=O)cc23)c1` [Example 361, 2,4(1H,3H)-Pyrimidinedione, 3-[3-(2-hydroxy-5-methoxyphenyl)-1,2-benzisothiazol-5-yl]-1-methyl-6-(trifluoromethyl)-], the “herbicidal effect rating ORYSAT” value in series [1] (Rate 0.0320 kg/ha) turned out to be 0.0; in series [1] (Rate 0.0620 kg/ha) it was 0.0; in series [1] (Rate 0.1250 kg/ha) it was 4.0; in series [1] (Rate 0.2500 kg/ha), 5.0; in series [1] (Rate 0.5000 kg/ha), 3.0. Also, the “herbicidal effect rating, SAGPY” value was determined as 4.0 with Sagittaria pygmaea, L. (setting [7]); 4.0 in the series with Sagittaria pygmaea, L. (setting [4]); 5.0 in the series on Sagittaria pygmaea, L. (setting [5]); 5.0 with Sagittaria pygmaea, L. (setting [6]); 5.0 in the series on Sagittaria pygmaea, L. (setting [8]). The “herbicidal effect rating, ECHORC” value in series [2] (setting [7]) stood at 0.0; in series [2] (setting [4]), 0.0; in series [2] (setting [5]), 0.0; in series [2] (setting [6]), 4.0; in series [2] (setting [8]) it was 4.0. The “herbicidal effect rating, MOOVA” value in series [3] (setting [7]), in series [3] (setting [4]), in series [3] (setting [5]), in series [3] (setting [6]) and in series [3] (setting [8]) was 9.0 each time. The “herbicidal effect rating, CYPIR” value in the series on Cyperus iria (setting [7]) is listed as 0.0; in the series on Cyperus iria (setting [4]), 0.0; with Cyperus iria (setting [5]), 0.0; in the series on Cyperus iria (setting [6]), 6.0; in the series with Cyperus iria (setting [8]) it was 6.0.

For the compound `CNC.Cn1c(C(F)(F)F)cc(=O)n(-c2ccc3snc(CSCC(=O)NS(C)(=O)=O)c3c2)c1=O` [Example 298, Acetamide, 2-{{{5-[3,6-dihydro-3-methyl-2,6-dioxo-4-(trifluoromethyl)-1(2H)-pyrimidinyl]-1,2-benzisothiazol-3-yl}methyl}thio}-N-(methylsulfonyl)-, dimethylamine salt], the “herbicidal effect rating ORYSAT” value in series [1] (Rate 0.0320 kg/ha), in series [1] (Rate 0.0620 kg/ha), in series [1] (Rate 0.1250 kg/ha) and in series [1] (Rate 0.2500 kg/ha) was 0.0 throughout. Besides, the “herbicidal effect rating, SAGPY” value is recorded as 0.0 in the series on Sagittaria pygmaea, L. (setting [9]); 0.0 with Sagittaria pygmaea, L. (setting [10]); 3.0 in the series on Sagittaria pygmaea, L. (setting [11]); 9.0 in the series with Sagittaria pygmaea, L. (setting [12]). The “herbicidal effect rating, ECHORC” value in series [2] (setting [9]) was found to be 0.0; in series [2] (setting [10]), 0.0; in series [2] (setting [11]), 0.0; in series [2] (setting [12]) it was 3.0. Moreover, the “herbicidal effect rating, MOOVA” value in series [3] (setting [9]), in series [3] (setting [10]), in series [3] (setting [11]) and in series [3] (setting [12]) was 9.0 throughout. Besides, the “herbicidal effect rating, CYPIR” value in the series with Cyperus iria (setting [9]) is 3.0; in the series with Cyperus iria (setting [10]), 9.0; in the series on Cyperus iria (setting [11]), 9.0; in the series on Cyperus iria (setting [12]) it was 9.0.
